Test results as given in the supplement of paper PMC12513837.
± gives the standard deviation of the averaged measurements.

Compound: CC(=O)N1CCc2c(c(N3CCCc4cc(-c5cnn(C)c5)c(C(F)F)cc43)nn2C2CCC(CN3CCN(c4ccc5c(c4)C(=O)N(C4CCC(=O)NC4=O)C5=O)CC3)CC2)C1 [CBPD-409]
Assay: AUC of viability dose-response curve (relative to vehicle, 8 doses up to 10 µM) (fraction); higher = less sensitive (more viable); extreme values may be limits of the assay
Procedure: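 PRISM multiplexed pooled barcoded cell line viability screen at the Broad Institute, 887 cancer cell lines treated with CBPD-409 (p300/CBP PROTAC degrader) at 8 concentrations in threefold dilution, top dose 10 µM. The read-out is the area under the dose-response curve of relative viability versus vehicle (n=3). AUC < 0.3 is called strongly sensitive and AUC > 0.8 resistant.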

| Test System | AUC of viability dose-response curve |
| --- | --- |
| OCIAML5_HAEMATOPOIETIC_AND_LYMPHOID_TISSUE | 0.461 |
| OCIC4P_OVARY | 0.99 |
| OCIC5X_OVARY | 0.69 |
| OCILY3_HAEMATOPOIETIC_AND_LYMPHOID_TISSUE | 0.617 |
| OCILY18_HAEMATOPOIETIC_AND_LYMPHOID_TISSUE | 0.451 |
| OCILY19_HAEMATOPOIETIC_AND_LYMPHOID_TISSUE | 0.725 |
| OCILY132_HAEMATOPOIETIC_AND_LYMPHOID_TISSUE | 1 |
| OCIM1_HAEMATOPOIETIC_AND_LYMPHOID_TISSUE | 0.286 |
| OCIP5X_OVARY | 1 |
| OCUG1_BILIARY_TRACT | 1 |
| OE19_OESOPHAGUS | 0.884 |
| OE21_OESOPHAGUS | 1 |
| OE33_OESOPHAGUS | 0.776 |
| ONCODG1_OVARY | 1 |
| ONDA9_CENTRAL_NERVOUS_SYSTEM | 1 |
| ONS76_CENTRAL_NERVOUS_SYSTEM | 0.922 ± 0.11 |
| OSC20_UPPER_AERODIGESTIVE_TRACT | 0.936 |
| OSRC2_KIDNEY | 1 |
| OV7_OVARY | 1 |
| OV17R_OVARY | 0.712 |
| OV56_OVARY | 1 |
| OVCAR8_OVARY | 0.486 |
| OVISE_OVARY | 1 |
| OVK18_OVARY | 0.365 |

| Test System | AUC of viability dose-response curve |
| --- | --- |
| OVKATE_OVARY | 1 |
| OVTOKO_OVARY | 0.781 |
| OZ_BILIARY_TRACT | 0.851 |
| P12ICHIKAWA_HAEMATOPOIETIC_AND_LYMPHOID_TISSUE | 0.739 |
| PA1_OVARY | 1 |
| PACADD119_PANCREAS | 0.991 |
| PACADD137_PANCREAS | 0.587 |
| PACADD161_PANCREAS | 0.652 |
| PANC1_PANCREAS | 0.999 |
| PANC0203_PANCREAS | 0.751 |
| PANC0327_PANCREAS | 1 |
| PANC0403_PANCREAS | 0.725 |
| PANC0504_PANCREAS | 0.671 |
| PANC0813_PANCREAS | 0.953 |
| PANC1005_PANCREAS | 1 |
| PATU8902_PANCREAS | 0.689 |
| PATU8988S_PANCREAS | 0.253 |
| PATU8988T_PANCREAS | 0.499 |
| PC3_PROSTATE | 0.763 |
| PC14_LUNG | 0.877 |
| PEA1_OVARY | 0.845 |
| PECAPJ15_UPPER_AERODIGESTIVE_TRACT | 0.917 |
| PECAPJ41CLONED2_UPPER_AERODIGESTIVE_TRACT | 0.662 |
| PECAPJ49_UPPER_AERODIGESTIVE_TRACT | 0.455 |

| Test System | AUC of viability dose-response curve |
| --- | --- |
| PEDS005TSUSP_KIDNEY | 0.309 |
| PF382_HAEMATOPOIETIC_AND_LYMPHOID_TISSUE | 0.566 |
| PFSK1_CENTRAL_NERVOUS_SYSTEM | 0.531 |
| PK1_PANCREAS | 0.685 |
| PK8_PANCREAS | 0.556 |
| PK45H_PANCREAS | 1 |
| PK59_PANCREAS | 0.694 |
| PL21_HAEMATOPOIETIC_AND_LYMPHOID_TISSUE | 0.499 |
| PLCPRF5_LIVER | 1 |
| PMFKO14_LARGE_INTESTINE | 0.705 |
| PSN1_PANCREAS | 0.639 |
| QGP1_PANCREAS | 0.661 |
| RBE_BILIARY_TRACT | 1 |
| RCC10RGB_KIDNEY | 1 |
| RCHACV_HAEMATOPOIETIC_AND_LYMPHOID_TISSUE | 0.298 |
| RCK8_HAEMATOPOIETIC_AND_LYMPHOID_TISSUE | 0.633 |
| RCM1_LARGE_INTESTINE | 1 |
| RDES_BONE | 0.484 |
| RD_SOFT_TISSUE | 0.657 ± 0.29 |
| RERFGC1B_STOMACH | 0.993 |
| RERFLCAD1_LUNG | 1 |
| RERFLCAD2_LUNG | 0.946 |
| RERFLCAI_LUNG | 0.913 |
| RERFLCKJ_LUNG | 1 |

| Test System | AUC of viability dose-response curve |
| --- | --- |
| RERFLCMS_LUNG | 0.837 |
| RH4_SOFT_TISSUE | 0.308 |
| RH28_SOFT_TISSUE | 0.625 |
| RH30_SOFT_TISSUE | 0.841 ± 0.22 |
| RH36_SOFT_TISSUE | 0.779 |
| RHJT_SOFT_TISSUE | 0.512 |
| RI1_HAEMATOPOIETIC_AND_LYMPHOID_TISSUE | 0.424 |
| RKN_SOFT_TISSUE | 1 |
| RKO_LARGE_INTESTINE | 0.854 |
| RL952_ENDOMETRIUM | 0.996 |
| RL_HAEMATOPOIETIC_AND_LYMPHOID_TISSUE | 0.651 |
| RMGI_OVARY | 0.73 |
| RMSYM_SOFT_TISSUE | 0.394 |
| RMUGS_OVARY | 0.866 |
| RO82W1_THYROID | 1 |
| RPMI7951_SKIN | 1 |
| RPMI8402_HAEMATOPOIETIC_AND_LYMPHOID_TISSUE | 0.266 |
| RT4_URINARY_TRACT | 0.887 |
| RT112_URINARY_TRACT | 0.83 |
| RVH421_SKIN | 0.929 |
| S117_THYROID | 0.612 |
| SAOS2_BONE | 0.466 |
| SBC5_LUNG | 0.687 |
| SCABER_URINARY_TRACT | 0.714 |

| Test System | AUC of viability dose-response curve |
| --- | --- |
| SCC3_HAEMATOPOIETIC_AND_LYMPHOID_TISSUE | 1 |
| SCC9_UPPER_AERODIGESTIVE_TRACT | 0.687 |
| SCC25_UPPER_AERODIGESTIVE_TRACT | 1 |
| SCLC21H_LUNG | 1 |
| SEM_HAEMATOPOIETIC_AND_LYMPHOID_TISSUE | 0.347 |
| SF126_CENTRAL_NERVOUS_SYSTEM | 0.521 |
| SF295_CENTRAL_NERVOUS_SYSTEM | 0.833 |
| SF539_CENTRAL_NERVOUS_SYSTEM | 1 |
| SG231_BILIARY_TRACT | 0.46 |
| SH4_SKIN | 0.409 |
| SH10TC_STOMACH | 0.626 |
| SHMAC5_PROSTATE | 1 |
| SHP77_LUNG | 0.641 |
| SIMA_AUTONOMIC_GANGLIA | 0.3 ± 0.073 |
| SISO_CERVIX | 0.987 |
| SJSA1_BONE | 0.673 ± 0.46 |
| SKES1_BONE | 0.286 ± 0.11 |
| SKGII_ENDOMETRIUM | 0.894 |
| SKGI_ENDOMETRIUM | 1 |
| SKGT2_STOMACH | 0.887 |
| SKGT4_OESOPHAGUS | 0.575 |
| SKHEP1_LIVER | 1 |
| SKLMS1_SOFT_TISSUE | 0.829 |
| SKLU1_LUNG | 0.753 |

| Test System | AUC of viability dose-response curve |
| --- | --- |
| SKM1_HAEMATOPOIETIC_AND_LYMPHOID_TISSUE | 1 |
| SKMEL2_SKIN | 1 |
| SKMEL3_SKIN | 0.818 |
| SKMEL5_SKIN | 0.506 |
| SKMEL24_SKIN | 1 |
| SKMEL28_SKIN | 0.575 |
| SKMEL30_SKIN | 0.703 |
| SKMES1_LUNG | 0.848 |
| SKNAS_AUTONOMIC_GANGLIA | 1 |
| SKNBE2_AUTONOMIC_GANGLIA | 0.539 ± 0.23 |
| SKNDZ_AUTONOMIC_GANGLIA | 0.267 |
| SKNFI_AUTONOMIC_GANGLIA | 0.854 |
| SKNMC_BONE | 0.996 |
| SKNO1_HAEMATOPOIETIC_AND_LYMPHOID_TISSUE | 0.247 |
| SKN_ENDOMETRIUM | 0.778 |
| SKOV3_OVARY | 1 |
| SKPNDW_BONE | 1 |
| SKUT1_SOFT_TISSUE | 0.609 |
| SMSCTR_SOFT_TISSUE | 0.847 |
| SNB75_CENTRAL_NERVOUS_SYSTEM | 1 |
| SNGM_ENDOMETRIUM | 0.527 |
| SNU1_STOMACH | 1 |
| SNU46_UPPER_AERODIGESTIVE_TRACT | 0.547 |
